This note sets out measurements from ChEMBL document CHEMBL1201862, “PubChem BioAssay data set” (2004).

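Briefly, cells in 96-well plates were exposed to five compound concentrations for 48 h, and endpoints were estimated by linear interpolation. At the GI50, growth is halved.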 Active and inactive are the calls of the source. No stated cut-off is given here; in the data, active = GI50 up to about 1.1 µM and inactive = higher.

Some test systems named below: U-251; SF-295; HT-29; SNB-19; SNB-75; UO-31; M14; UACC-257; SF-268; Malme-3M; A498; CCRF-CEM; MOLT-4; NCI-H226; NCI-H522; HCT-116; SR.
What all share (assay): inhibition of tumour cell growth, NCI panel, 48 h

For the compound `N#CC1=C(c2ccccc2)OC2(N)OC(c3ccccc3)=C(C#N)C12C#N` (configuration not stated), the GI50 with U-251 is > 100 µM (inactive); with SF-295, > 100 µM (inactive); with HT-29, > 100 µM (inactive); in the assay with SNB-19 it was > 100 µM (inactive); with SNB-75 it was 43.6 µM (inactive); with UO-31 it was 31.5 µM (inactive). The GI50 is > 100 µM (inactive) with M14; > 100 µM (inactive) in the assay with UACC-257; > 100 µM (inactive) in the assay on SF-268; > 100 µM (inactive) in the assay with Malme-3M; > 100 µM (inactive) with A498; 56.1 µM (inactive) in the assay on CCRF-CEM. Moreover, in the assay on MOLT-4, the GI50 is > 100 µM (inactive).
`COc1cccc(C2C(C(=O)Nc3cc(=O)n(C)c(=O)n3C)=C(C)NC(C)=C2C(=O)Nc2cc(=O)n(C)c(=O)n2C)c1O`: the GI50 in the assay on U-251 is > 100 µM (inactive); in the assay on SF-295 it was > 100 µM (inactive); in the assay with HT-29, > 100 µM (inactive); in the assay on SNB-19, > 100 µM (inactive); in the assay with NCI-H226, > 100 µM (inactive); in the assay on SNB-75 it was 23.9 µM (inactive). Also, the GI50 in the assay on UO-31, with M14, in the assay with UACC-257, in the assay with SF-268, in the assay on Malme-3M and in the assay on A498 was > 100 µM (inactive) throughout. Moreover, the figures for the GI50 in the assay with NCI-H522, in the assay with CCRF-CEM and with MOLT-4 were > 100 µM (inactive), 86.7 µM (inactive) and > 100 µM (inactive), respectively.
On to `CCCC(S(=O)(=O)c1ccccc1)S(=O)(=O)c1ccccc1`, for which the GI50 in the assay with U-251 was > 100 µM (inactive); in the assay with SF-295, 83.4 µM (inactive); in the assay with HT-29 it was > 100 µM (inactive); in the assay on NCI-H226, 86.7 µM (inactive); in the assay with SNB-75, > 100 µM (inactive); in the assay with UO-31 it was > 100 µM (inactive). The GI50 in the assay on M14, in the assay with UACC-257, with HCT-116, in the assay with Malme-3M, in the assay on A498 and with CCRF-CEM was > 100 µM (inactive) throughout. In the assay with MOLT-4, the GI50 is > 100 µM (inactive).
For `CCOC(=O)[C@H]1Nc2ccc(O)cc2C2c3ccccc3CC21` (some centres not stated), the GI50 with U-251 is 88.7 µM (inactive); in the assay with SF-295, > 10 µM (inactive); with HT-29 it was > 100 µM (inactive); in the assay with SNB-19, > 100 µM (inactive); in the assay on NCI-H226 it was > 100 µM (inactive); in the assay on SNB-75, 36.9 µM (inactive). Also, the GI50 in the assay with UO-31 was 98.2 µM (inactive); in the assay with M14, 59.7 µM (inactive); with UACC-257 it was 37.7 µM (inactive); in the assay with HCT-116, 68.1 µM (inactive); in the assay with SF-268, > 100 µM (inactive); in the assay on Malme-3M it was > 100 µM (inactive). Also, the GI50 with A498 was > 100 µM (inactive); in the assay with NCI-H522 it was 61.7 µM (inactive); with MOLT-4, 33 µM (inactive).
On to `Nc1nc2c(ncn2CCCC(c2ccccc2)P(=O)(O)O)c(=O)[nH]1` (configuration not stated), for which the GI50 with U-251, with SF-295, in the assay with HT-29, in the assay with SNB-19, with SNB-75 and in the assay with UO-31 was > 100 µM (inactive) in each case. Moreover, the GI50 with M14, in the assay on UACC-257, in the assay with HCT-116, in the assay with SF-268, in the assay on Malme-3M and in the assay with NCI-H522 was > 100 µM (inactive) in each case. Also, the GI50 in the assay with CCRF-CEM and with MOLT-4 was > 100 µM (inactive) each time.
`Cc1ccc(S(=O)(=O)C2CC2(Cl)Cl)cc1` (configuration not stated): the GI50 in the assay on U-251 was > 100 µM (inactive); in the assay with SF-295, 38.6 µM (inactive); with HT-29, 18.8 µM (inactive); in the assay on SNB-19, > 100 µM (inactive); in the assay with NCI-H226 it was > 100 µM (inactive); in the assay on SNB-75 it was 55.7 µM (inactive). The GI50 in the assay with UO-31 was 22 µM (inactive); with M14, 14.7 µM (inactive); in the assay on UACC-257, 21.2 µM (inactive); in the assay on HCT-116 it was 20.4 µM (inactive); in the assay with SF-268 it was 34 µM (inactive); in the assay with Malme-3M, 19.6 µM (inactive). The GI50 in the assay on NCI-H522 was 12.5 µM (inactive); with CCRF-CEM it was 11.1 µM (inactive); with MOLT-4, 13.9 µM (inactive).
Turning to `COc1nc2c(c(O)c(C)c(=O)n2OC2OCC(OC(C)=O)C(OC(C)=O)C2OC(C)=O)c(=O)n1C` (configuration not stated), the GI50 in the assay with U-251, with SF-295, in the assay on HT-29, with SNB-19, in the assay on NCI-H226 and in the assay with SNB-75 was > 100 µM (inactive) throughout. The GI50 is > 100 µM (inactive) with UO-31; > 100 µM (inactive) in the assay with M14; > 100 µM (inactive) in the assay with HCT-116; > 100 µM (inactive) with SF-268; 91.8 µM (inactive) in the assay with NCI-H522; > 100 µM (inactive) in the assay on CCRF-CEM. Besides, the GI50 in the assay on SR and in the assay with MOLT-4 was > 100 µM (inactive) throughout.
As for `C[Si](C)(c1ccccc1)C1CC(=O)CC(=O)C1`, the GI50 with U-251, with SF-295, with HT-29, in the assay with SNB-19, in the assay with NCI-H226 and with SNB-75 was > 100 µM (inactive) in each case. Also, the GI50 is 19.9 µM (inactive) with UO-31; > 100 µM (inactive) in the assay with M14; > 100 µM (inactive) with UACC-257; > 100 µM (inactive) in the assay with HCT-116; > 100 µM (inactive) in the assay with SF-268; > 100 µM (inactive) with Malme-3M. The GI50 in the assay with NCI-H522 was 26.1 µM (inactive); with CCRF-CEM it was 38.4 µM (inactive); with SR it was > 100 µM (inactive); in the assay on MOLT-4, > 100 µM (inactive).
Take `O=c1[nH]cc(F)c(=O)n1C1OC(CO)C(O)C1O` (configuration not stated): the GI50 in the assay on U-251, with SF-295, in the assay on HT-29, with SNB-19, with NCI-H226 and in the assay on SNB-75 was > 100 µM (inactive) in each case. Also, the GI50 with UO-31, with M14, in the assay with UACC-257, in the assay on SF-268, in the assay on Malme-3M and in the assay on NCI-H522 was > 100 µM (inactive) throughout. For the same compound, the GI50 in the assay on CCRF-CEM and with MOLT-4 was > 100 µM (inactive) throughout.
`O=C(O)/C(Cl)=C(\Cl)Nc1cccc(C(F)(F)F)c1`: the GI50 in the assay with U-251 is > 100 µM (inactive); in the assay with SF-295 it was > 100 µM (inactive); in the assay on HT-29, > 100 µM (inactive); in the assay with SNB-75, > 100 µM (inactive); in the assay on UO-31, > 100 µM (inactive); in the assay with M14 it was 18 µM (inactive). Also, the GI50 with SF-268, in the assay on Malme-3M and in the assay with CCRF-CEM was > 100 µM (inactive) throughout.
With `C[C@@H]1OC(=O)N2CCCC(=C3SCCCS3)C12` (some centres not stated), the GI50 in the assay with U-251 is > 100 µM (inactive); with SF-295, 90.2 µM (inactive); with HT-29, 70.1 µM (inactive); in the assay with SNB-19, > 100 µM (inactive); with NCI-H226, 44.9 µM (inactive); with SNB-75 it was 51.2 µM (inactive). Moreover, the GI50 is 19.4 µM (inactive) in the assay on UO-31; 48.9 µM (inactive) with M14; 37.1 µM (inactive) in the assay with UACC-257; 44.4 µM (inactive) in the assay on HCT-116; 61.9 µM (inactive) with SF-268; > 100 µM (inactive) with Malme-3M. In addition, the GI50 in the assay with A498 was > 100 µM (inactive); with NCI-H522 it was 59.2 µM (inactive); in the assay on CCRF-CEM, 46.6 µM (inactive); in the assay on MOLT-4, 33.3 µM (inactive).
`C[N+](C)(C)CC(=O)N/N=C(/C=C/c1ccccc1)CC1OC(=O)c2ccccc21` (configuration not stated): the GI50 is > 100 µM (inactive) with U-251; > 10 µM (inactive) in the assay on SF-295; > 10 µM (inactive) with HT-29; > 100 µM (inactive) in the assay on SNB-19; > 100 µM (inactive) with NCI-H226; > 100 µM (inactive) with SNB-75. The GI50 with UO-31, in the assay on M14, in the assay on UACC-257, in the assay with HCT-116, with SF-268 and in the assay with Malme-3M was > 100 µM (inactive) throughout. Further, the GI50 in the assay on A498, in the assay on NCI-H522, in the assay on CCRF-CEM and in the assay with MOLT-4 was > 100 µM (inactive) each time.
With `C[n+]1c2ccccc2c(CNCC(=O)O)c2ccccc21`, the GI50 in the assay with U-251 was 3.62 µM (inactive); in the assay on SF-295 it was 5.07 µM (inactive); with HT-29 it was 0.711 µM (active); in the assay on SNB-19 it was 10.2 µM (inactive); in the assay on NCI-H226 it was 3.3 µM (inactive); in the assay on SNB-75 it was 8.41 µM (inactive). Moreover, the GI50 was 10.9 µM (inactive) with UO-31; 3.97 µM (inactive) with M14; 10.9 µM (inactive) with UACC-257; 0.39 µM (active) with HCT-116; 0.459 µM (active) with SF-268; 11.9 µM (inactive) with Malme-3M. Moreover, the GI50 with A498 is 2.61 µM (inactive); in the assay with NCI-H522, 0.137 µM (active); with SR, 0.238 µM (active); with MOLT-4, 0.223 µM (active).
For `Cc1ccc(S(=O)(=O)NC2(C=O)CCC(C(C)(C)C)CC2)cc1` (configuration not stated), the GI50 in the assay on U-251 is 34.3 µM (inactive); in the assay with SF-295, 31.3 µM (inactive); in the assay with HT-29 it was 32.1 µM (inactive); in the assay with SNB-19, 68.7 µM (inactive); in the assay on NCI-H226 it was > 100 µM (inactive); with SNB-75, 45.2 µM (inactive). For the same compound, the GI50 in the assay with UO-31 is 38.1 µM (inactive); in the assay on M14, 71 µM (inactive); in the assay on UACC-257, 34.9 µM (inactive); in the assay on HCT-116, 23.8 µM (inactive); with SF-268, 38.9 µM (inactive); in the assay with Malme-3M, 35.2 µM (inactive). Moreover, the GI50 was 89.9 µM (inactive) in the assay with A498, 24.3 µM (inactive) in the assay on NCI-H522, 15.2 µM (inactive) in the assay with SR and 16.5 µM (inactive) with MOLT-4.
